As a reminder, the IC50 is the point on the concentration scale where inhibition reaches its midpoint. In general, CC50 refers to the concentration giving 50% cytotoxicity.

Here are results for nine compounds from paper PMC8125995, “In Vitro Antiplasmodial and Cytotoxic Activities of Compounds from the Roots of Eriosema montanum Baker f. (Fabaceae)” (Molecules, 2021).

Converted amounts (≈) assume the structure as drawn. Like-named read-outs stand apart in the source and are kept apart here.

Data set [1] deals with 3D7 strain of Plasmodium falciparum. As to the kind of experiment: In vitro antiplasmodial activity (SYBR Green, 48 h). The data set is classed as cell-based. The settings on record: read-out: Antiplasmodial Activity IC50. The method, then:
Continuous in vitro cultures of asexual erythrocyte stages of P. falciparum, chloroquine-sensitive 3D7 strain was maintained according to the procedure of Trager and Jensen. Strains were obtained from ATCC, Bei Resources. The host cells were human red blood cells (A+). […] Compound stock solutions were prepared in DMSO at 10 mg/mL (for an extract) and 1 mg/mL (for an isolated compound). Then, the solution is directly diluted in the medium; each test sample was applied in a series of eight 2-fold dilutions in a 96-well plate, starting with 100 µg/mL and 10 µg/mL for the crude extract and purified compounds, respectively, and tested in triplicate. The effect of compounds on the parasite growth was estimated, after 48 h incubation, by using the SYBR Green, a DNA intercalating compound. Artemisinin (Sigma-Aldrich, Machelen, Belgium), at an initial concentration of 100 ng/mL, was used as positive control in all experiments. The half-maximal inhibitory concentration (IC50) values were calculated from graphs.

Data set [2] is described as follows: Cytotoxicity, Cell Titer-Glo Luminescent Cell Viability Assay. In kind it is cell-based. The conditions noted are these: human. The method, then: (§1) The cytotoxic effect of the crude extract and compounds thereof on THP-1 human acute leukemia cell line was carried using the Cell Titer-Glo Luminescent Cell Viability Assay (Promega). […] Cells were then incubated in the presence or absence of tested compounds for 3 days at 37 °C in a humidified 5% CO2 atmosphere in a 96-wells plate at a cell density of two thousand cells/well. The cell viability was then evaluated using Cell Titer-Glo Luminescent Cell Viability Assay (Promega) according to the manufacturer’s instructions.
(ATP-based viability assays read luminescence as a measure of living cells.)

A further data set deals with different cell lines. Further details: method as in doi:10.1016/j.phytol.2020.10.005. The settings on record: cited from earlier work.
The subject of data set [3] is THP-1 human acute leukemia cell line. As to the kind of experiment: Cytotoxicity, Cell Titer-Glo Luminescent Cell Viability Assay. In kind it is cell-based. The conditions noted are these: 3 days. The method, then: as §1
On the set-up of data set [4]: method as in PMID 21872416. The settings on record: antiplasmodial activity; read-out: reported IC50; cited from earlier work.
Setting [5] is: chloroquine-sensitive 3D7 strain, 48 h incubation, SYBR Green, mean ± S.D. of two, three or four independent experiments.

For `C[C@@H]1CC[C@H]2[C@@H](C)C(=O)O[C@@H]3O[C@@]4(C)CC[C@@H]1[C@]32OO4` [Artemisinin, reference compound], in data set [1] (setting [5]), the IC50 came out at 0.0067 ± 0.003 mg/L (≈ 0.0237 µM).

Take `O=C(O)C[C@](O)(Cc1ccc(O)cc1)C(=O)O` [Compound 1, eucomic acid]: the half-inhibitory concentration (IC50) in data set [1] (setting [5]) is 0.057 ± 0.031 mg/L (≈ 0.237 µM). Moreover, in data set [2] (Cytotoxic Activity CC50), the cytotoxic concentration (CC50) at 3 days was 375 ± 97.3 mg/L (≈ 1560 µM). Moreover, the cytotoxic concentration (CC50) in the data set with different cell lines is above 100 µM.

Take `COc1cc(OC2OC(CO)C(O)C(O)C2O)cc2occ(-c3ccc(O)cc3)c(=O)c12` (stereo not shown) [Compound 2, 7-O-glucopyranosyl-isoprunetin]: the 50% inhibitory concentration (IC50) in data set [1] (setting [5]) came to 0.113 ± 0.074 mg/L (≈ 0.253 µM). In addition, in data set [2] (Cytotoxic Activity CC50), the CC50 at 3 days was found to be 322 ± 20.6 mg/L (≈ 721 µM).

Take `O=c1c(-c2ccc(O)cc2)coc2cc(O[C@@H]3O[C@H](CO)[C@@H](O)[C@H](O)[C@H]3O)cc(O)c12` [Compound 3, genistin]: the concentration for half-maximal inhibition (IC50) in data set [1] (setting [5]) turned out to be 7.87 ± 1.72 mg/L (≈ 18.2 µM). The compound further gave a 50% cytotoxic concentration (CC50) at 3 days in data set [2] (Cytotoxic Activity CC50) of 169 mg/L (≈ 390 µM). In data set [3], the “Cytotoxic Activity CC50” value was 196.3 ± 44.5 mg/L.

Consider `O=C(O)CC(=O)OC[C@H]1O[C@@H](Oc2cc(O)c3c(=O)c(-c4ccc(O)cc4)coc3c2)[C@H](O)[C@@H](O)[C@@H]1O` [Compound 4, malonyl genistin], for which, in data set [1] (setting [5]), the half-inhibitory concentration (IC50) is above 10 mg/L. In data set [2] (Cytotoxic Activity CC50), this compound returned a CC50 at 3 days of 182 mg/L (≈ 351 µM). Besides, in data set [3], the “Cytotoxic Activity CC50” value was found to be 223.3 ± 58.6 mg/L.

`COc1cc(O)cc2occ(-c3ccc(O)cc3)c(=O)c12` [Compound 5, isoprunetin]: the IC50 in data set [1] (setting [5]) is 0.042 mg/L (≈ 0.148 µM). Besides, half-maximal cytotoxicity in data set [2] (Cytotoxic Activity CC50) (CC50 at 3 days) was put at 221 ± 33.3 mg/L (≈ 778 µM).

As for `O=c1c(-c2ccc(O)c(O)c2)coc2cc(O)cc(O)c12` [Compound 6, Isoluteolin], the half-maximal inhibitory concentration (IC50) in data set [1] (setting [5]) is 0.121 ± 0.048 mg/L (≈ 0.423 µM). This compound also yielded a CC50 at 3 days in data set [2] (Cytotoxic Activity CC50) of 243 ± 73 mg/L (≈ 848 µM).

As to `O=c1c(-c2ccc(O)cc2)coc2cc(O)cc(O)c12` [Compound 7, genistein], the IC50 in data set [1] (3D7, 48 h) turned out to be 7.74 ± 0.802 mg/L (≈ 28.6 µM). Further, the 50% cytotoxic concentration (CC50) at 3 days in data set [2] (THP-1 cells, 3 days incubation, read-out: Cytotoxic Activity CC50) was determined as 116 mg/L (≈ 430 µM).

`O=C(O)CC(O)C(=O)O` (stereo not shown) [Malic acid, malic acid]: the 50% inhibitory concentration (IC50) in data set [4] is above 10 µM.
